Here are results for 1 compound from article PMC7409302 (Cancers, 2020).

This experiment has as its target T1, androgen receptor (AR) (Homo sapiens, UniProt P10275, T878A).
T1 construct: endogenous full-length AR in LNCaP cells
T1 sequence (P10275 1-920 T878A): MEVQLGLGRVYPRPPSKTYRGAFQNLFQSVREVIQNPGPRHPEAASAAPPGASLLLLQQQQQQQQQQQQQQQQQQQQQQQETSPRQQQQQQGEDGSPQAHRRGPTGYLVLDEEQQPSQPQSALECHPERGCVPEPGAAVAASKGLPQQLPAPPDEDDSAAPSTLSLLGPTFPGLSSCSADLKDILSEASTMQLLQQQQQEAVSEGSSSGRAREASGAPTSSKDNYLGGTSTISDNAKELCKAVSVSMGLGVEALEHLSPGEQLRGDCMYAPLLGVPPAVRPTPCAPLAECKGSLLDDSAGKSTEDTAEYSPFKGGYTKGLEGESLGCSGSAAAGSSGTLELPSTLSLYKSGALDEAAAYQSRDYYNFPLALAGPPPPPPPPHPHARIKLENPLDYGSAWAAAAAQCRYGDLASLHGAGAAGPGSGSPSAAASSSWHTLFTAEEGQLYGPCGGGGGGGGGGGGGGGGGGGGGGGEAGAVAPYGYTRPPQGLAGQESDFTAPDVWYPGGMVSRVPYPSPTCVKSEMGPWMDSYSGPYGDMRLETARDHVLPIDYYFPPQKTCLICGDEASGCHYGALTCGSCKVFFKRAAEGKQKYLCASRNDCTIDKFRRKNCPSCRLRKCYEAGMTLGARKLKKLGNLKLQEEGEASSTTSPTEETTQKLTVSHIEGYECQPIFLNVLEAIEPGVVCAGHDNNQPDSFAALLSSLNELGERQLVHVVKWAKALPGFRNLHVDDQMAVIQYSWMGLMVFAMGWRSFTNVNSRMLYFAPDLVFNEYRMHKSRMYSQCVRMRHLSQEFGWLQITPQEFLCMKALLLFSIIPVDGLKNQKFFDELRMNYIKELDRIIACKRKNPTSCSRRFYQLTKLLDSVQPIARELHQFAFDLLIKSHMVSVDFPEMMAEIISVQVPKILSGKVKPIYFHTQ
As to the kind of experiment: androgen (R1881)-induced PSA([…].1kb)-luciferase reporter in LNCaP cells. It is filed as cell-based.

`CC(C)(c1ccc(OC[C@H](O)CNS(C)(=O)=O)cc1)c1cc(Cl)c(OC[C@H](O)CCl)c(Cl)c1` [EPI-7170]: half-maximal inhibition (IC50) was put at 1.08 ± 0.55 µM.
